Assay results published in US9919021B2, “Brain permeant peptidomimetic beta-secretase 1 inhibitors for the treatment or prophylaxis of neurological disorders or conditions” (IBET—INSTITUTO DE BIOLOGIA EXPERIMENTAL E TECNOLOGICA, priority 2016, dated 2018).
Where two headings read alike, the source gives them in different places. Starred links: 1 amine or outer side, 2 acyl side, 3 side chain; linkers in the order of their positions; H or OH if unused. Non-standard residues stand in square brackets, D forms with d. Residues, ends and D or L forms follow the SMILES beside them. LeuΨ(S-CHOHCH2)Ala = CC(C)C[C@H](N[*:1])[C@@H](O)C[C@@H](C)C(=O)[*:2]

How the values were obtained:
[1] = in vivo pharmacokinetic study in mice after intravenous Ia; details: for detection in brain samples: after intravenous Ia 0.53 mg/kg, HPLC-FLU and LC-MS
[2] = molecular target: T1, BACE-2 (human, recombinant) (Homo sapiens, UniProt Q9Y5Z0); experiment: BACE-2 activity assay (fluorogenic substrate, HPLC-FLU); type: biochemical; details: pH 4.5, 37° C.; mean value ± standard deviation, n = 3; read-out: Ki^app BACE-2
T1 construct: purchased Enzo
T1 sequence (Q9Y5Z0 63-518): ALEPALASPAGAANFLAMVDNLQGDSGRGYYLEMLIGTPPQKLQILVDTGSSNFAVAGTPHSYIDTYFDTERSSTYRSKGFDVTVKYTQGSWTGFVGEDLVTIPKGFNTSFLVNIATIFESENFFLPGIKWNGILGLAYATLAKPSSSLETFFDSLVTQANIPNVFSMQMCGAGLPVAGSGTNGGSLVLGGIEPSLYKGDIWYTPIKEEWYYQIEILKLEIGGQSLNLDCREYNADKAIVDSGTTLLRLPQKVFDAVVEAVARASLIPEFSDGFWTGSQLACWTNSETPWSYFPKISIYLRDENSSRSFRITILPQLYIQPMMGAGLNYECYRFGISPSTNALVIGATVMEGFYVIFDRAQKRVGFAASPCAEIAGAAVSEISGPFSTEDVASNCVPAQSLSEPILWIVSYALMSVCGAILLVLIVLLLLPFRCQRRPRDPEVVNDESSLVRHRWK

[3] = molecular target: T2, BACE-1 (human, recombinant) (Homo sapiens, UniProt P56817); experiment: BACE-1 activity assay (fluorogenic substrate, HPLC-FLU); type: biochemical
T2 construct: purchased Sigma-Aldrich
Description: The program started at 90% A for two min, graded to 70% A during ten min and finally to 0% A during two min.

[4] = set-up: species or system Wistar rats; details: in vivo, iv; for detection in serum samples: rat
Protocol: Female mice (n=12, 8-12 weeks, weighing 22-37 g) and male Wistar rats (n=8, 8-12 weeks, weighing 182-201 g) were purchased from Harlan Ibérica, Barcelona, Spain. All animals received a standard diet and water ad libitum. Experiments were conducted according to the Home Office Guidance in the Operation of Animals (Scientific Procedures) Act 1986, published by Her Majesty's Stationary Office, London, UK and the Institutional Animal Research Committee Guide for the Care and Use of Laboratory Animals published by the US National Institutes of Health (NIH Publication No. 85-23, revised 1996), as well as to the currently adopted EC regulations (2010/63/EU). Finally, the studies are in compliance with the ARRIVE Guidelines for Reporting Animal Research' summarized at www.nc3rs.org.uk. Before experiments animals were fasted for 24 h.
PBS was used to prepare a solution of Ia for intravenous administration at a dose of 0.53 mg/kg. Experiments were done in triplicate. Mice and Wistar rats were sacrificed at 0.5, 1 and 2 hours after dosing and were previously anesthetized with sodium pentobarbital (6 mg/kg i.p.) for collection of blood by cardiac puncture and brain tissue was perfused by intraventricular injection of 10 mL of chilled saline solution to remove residual blood.
Serum was isolated from the blood samples by centrifugation at 657 g for 10 min, at 4° C. Serum proteins were precipitated with one volume of acetonitrile and were removed by centrifugation at 14000 g for 10 min. Brain was promptly removed and washed with PBS and blotted dry. Meninges were carefully removed. In the case of Wistar rats only cortex and hippocampus were collected while for mice the whole brain was used. The brain samples were homogenized with 2 volumes (V/w) of PBS/acetonitrile/Triton X-100 (50/50/0.5) using firstly a pestle and then a pipette and finally a sonicator. Compound Ic was added as internal standard to best mimic the recovery of compound Ia. The pellet was removed centrifuging at 14000 g for 10 min. Samples were purified by preparative reverse-phase HPLC Using a C18 column (Jupiter, Phenomenex) 250×21.2 mm, 5 μm. Chromatographic conditions were as follow: eluent (A) water/TFA (99.9:0.1, V/V), (B) acetonitrile/water/TFA (90:9.9:0.1, V/V). The linear gradient was started at 80% A, graded to 68% for 2 min and then was kept at 68% for 17 min finally grading to 0% A for 5 min. The flow rate was 10 mL/min and the column was at room temperature. […]
For identification of Ia and its metabolite in Wistar rat brain, samples were analyzed using a 4800plus MALDI-TOF/TOF (AB Sciex) mass spectrometer in the positive reflector MS and MS/MS modes with 3200 laser shots per spectrum and data was collected using the 4000 Series Explorer Software v.3.5.3 (Applied Biosystems). […]

[5] = in vitro; type: in vitro ADME, mice; details: mouse, brain homogenate, t1/2 brain
Protocol: An assay for in vitro metabolic stability was accomplished in order to test the influence of N-terminal acylation on the metabolization profile of the compounds. Therefore, compounds were prepared at 50 μM in phosphate-buffered saline (PBS) with 2% DMSO. An amount of 10 μL of the solution was added to human serum (40 μL) or to 10% of mice brain homogenate in PBS with 0.5% Triton X-100 (40 μL). All compounds were tested using the same biological samples of human serum and mice brain homogenate to ensure identical deactivation conditions. The solutions were incubated during different time periods at 37° C., after which metabolization was stopped by adding one volume of acetonitrile. Precipitated serum and brain proteins were removed by centrifugation at 14 000g for 10 min. […] The remaining peptide in the supernatant was quantified by HPLC-FLU (Merck Hitachi, Elite LaChrom), (exλ=255 nm and emλ=285 nm, to detect compounds containing phenylalanine, and exλ=275 nm and emλ=307 nm whenever tyrosine is present). Chromatographic conditions were as described for determination of enzyme activities. A calibration curve was built for each compound, and the decay in the concentration of the peptide in the incubated samples was followed until approximately 50% decay. The metabolization kinetics of the synthetic peptides followed a monophasic behaviour in vitro.

[6] = mouse, in vivo, iv
[7] = pro-BACE-1, pH 4.5, 37° C., mean value ± standard deviation, n = 3, read-out: Ki BACE-1

T2 sequence (P56817 46-501): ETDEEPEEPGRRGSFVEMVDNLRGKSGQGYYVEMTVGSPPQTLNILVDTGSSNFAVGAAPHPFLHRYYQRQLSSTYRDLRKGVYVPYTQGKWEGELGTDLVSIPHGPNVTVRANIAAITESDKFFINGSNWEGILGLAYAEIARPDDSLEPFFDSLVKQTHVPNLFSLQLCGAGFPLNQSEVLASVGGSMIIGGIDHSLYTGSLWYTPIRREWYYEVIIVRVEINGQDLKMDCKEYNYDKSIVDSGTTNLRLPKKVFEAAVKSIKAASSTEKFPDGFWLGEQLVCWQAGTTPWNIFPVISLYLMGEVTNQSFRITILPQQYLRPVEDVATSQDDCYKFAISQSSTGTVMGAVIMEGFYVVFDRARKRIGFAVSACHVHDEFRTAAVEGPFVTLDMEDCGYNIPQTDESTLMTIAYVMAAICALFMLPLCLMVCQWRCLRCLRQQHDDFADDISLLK

Compound | detection in brain samples [1] | detection in serum samples ([1]; half an hour after intravenous Ia 0.53 mg/kg, HPLC-FLU) | Ki [2] [nM] | Ki [3, 7] [nM] | detection in rat cortex [4] | detection in serum samples [4] | half-life at 10 µM [5] [min] | Ki [3] [nM] | concentration in mice brain [6]
CC(=O)N[C@@H](CCC(=O)O)C(=O)N[C@@H](CC(C)C)C(=O)N[C@@H](CC(=O)O)C(=O)N[C@@H](CC(C)C)[C@@H](O)C[C@@H](C)C(=O)N[C@H](C(=O)N[C@@H](Cc1ccccc1)C(=O)N[C@@H](Cc1ccc(O)cc1)C(=O)N[C@@H](C)C(=O)N[C@@H](CCC(=O)O)C(=O)N[C@@H](CC(=O)O)C(N)=O)C(C)C [Ia] (Ac-ELD[LeuΨ(S-CHOHCH2)Ala]VFYAED-NH2) | could not be detected | not detected | 18.3 ± 0.5 | 2 ± 0.6 | not detected | detected | 204 |  | 
CC(C)C[C@H](NC(=O)[C@@H](N)CCC(=O)O)C(=O)N[C@@H](CC(=O)O)C(=O)N[C@@H](CC(C)C)[C@@H](O)C[C@@H](C)C(=O)N[C@H](C(=O)N[C@@H](Cc1ccccc1)C(=O)N[C@@H](Cc1ccc(O)cc1)C(=O)N[C@@H](C)C(=O)N[C@@H](CCC(=O)O)C(=O)N[C@@H](CC(=O)O)C(N)=O)C(C)C [Ic] (H-ELD[LeuΨ(S-CHOHCH2)Ala]VFYAED-NH2) |  |  | 14.2 ± 2.2 | 1.9 ± 0.2 |  |  | 138 ± 6 | 2 ± 0.1 | 
CC(C)C[C@H](NC(=O)[C@@H](N)CCC(=O)O)C(=O)N[C@@H](CC(=O)O)C(=O)N[C@@H](CC(C)C)[C@@H](O)C[C@@H](C)C(=O)N[C@H](C(=O)N[C@@H](Cc1ccccc1)C(=O)N[C@@H](Cc1ccccc1)C(=O)N[C@@H](C)C(=O)N[C@@H](CCC(=O)O)C(=O)N[C@@H](CC(=O)O)C(N)=O)C(C)C [Id] (H-ELD[LeuΨ(S-CHOHCH2)Ala]VFFAED-NH2) |  |  | 7.3 ± 0.9 | 2 ± 0.1 |  |  |  |  | 
CC(C)C[C@H](NC(=O)[C@@H](N)CCC(=O)O)C(=O)N[C@@H](CC(=O)O)C(=O)N[C@@H](CC(C)C)[C@@H](O)C[C@@H](C)C(=O)N[C@H](C(=O)N[C@@H](Cc1ccccc1)C(=O)N[C@@H](Cc1ccc(O)cc1)C(=O)N[C@@H](C)C(=O)N[C@@H](CCC(=O)O)C(=O)N[C@@H](CC(=O)O)C(=O)O)C(C)C [Ig] (H-ELD[LeuΨ(S-CHOHCH2)Ala]VFYAED-OH) | found within therapeutic concentrations |  | 12.7 ± 1.9 | 1.7 ± 0.2 | detected | detected | 360 ± 18 |  | approximately 20 nM
CC(C)C[C@H](NC(=O)[C@@H](N)CCC(=O)O)C(=O)N[C@@H](CC(=O)O)C(=O)N[C@@H](CC(C)C)[C@@H](O)C[C@@H](C)C(=O)N[C@H](C(=O)N[C@@H](CCC(=O)O)C(=O)N[C@@H](Cc1ccccc1)C(=O)O)C(C)C [OM00-3, reference compound] (H-ELD[LeuΨ(S-CHOHCH2)Ala]VEF-OH) |  |  | 3 ± 0.3 |  |  |  | 348 ± 42 |  | 
